Test results from paper PMC6467542 (Bioorganic & Medicinal Chemistry, 2019).
≈ marks a conversion by molar mass, not a printed value. Where two headings read alike, the source gives them in different places.

Tests used:
[1] = Cytotoxicity in Vero cells; format: cell-based; settings: green monkey, Vero green monkey-derived epithelial kidney cells
[2] = tested on: M. tb (strain H37Rv); assay: MIC90 against replicating M.tb (MABA); format: cell-based, Mycobacterium tuberculosis; settings: Mycobacterium tuberculosis, aerobic (replicating) conditions, 90% inhibition of growth
[3] = tested on: M. tb (strain H37Rv); assay: MIC90 against non-replicating M.tb (LORA); format: cell-based, Mycobacterium tuberculosis; settings: Mycobacterium tuberculosis, H37RV, read-out: MIC90 LORA
Method: In these assays, 1 is a potent inhibitor, with MICs of 0.08 and 0.12 µg/mL, respectively. Replacement of the naphthalene C-unit of 1 with various pyridyls produced analogues of considerably lower lipophilicity, with clogP values ranging from 6.89 down to 2.98.

[4] = mouse, in vivo
[5] = tested on: M.tb; assay: Efficacy in a mouse model of TB (lung CFU reduction); format: in vivo
[6] = molecular target: hERG potassium channel (Homo sapiens, UniProt Q12809); assay: Inhibition of hERG potassium current (patch clamp electrophysiology); settings: for IC50: read-out: hERG IC50, manual patch clamp, 5-concentration dose-response; for hERG % inhibition at 3 µM: manual or (less accurate) QPatch assay
Sequence of hERG potassium channel (Q12809 whole entry): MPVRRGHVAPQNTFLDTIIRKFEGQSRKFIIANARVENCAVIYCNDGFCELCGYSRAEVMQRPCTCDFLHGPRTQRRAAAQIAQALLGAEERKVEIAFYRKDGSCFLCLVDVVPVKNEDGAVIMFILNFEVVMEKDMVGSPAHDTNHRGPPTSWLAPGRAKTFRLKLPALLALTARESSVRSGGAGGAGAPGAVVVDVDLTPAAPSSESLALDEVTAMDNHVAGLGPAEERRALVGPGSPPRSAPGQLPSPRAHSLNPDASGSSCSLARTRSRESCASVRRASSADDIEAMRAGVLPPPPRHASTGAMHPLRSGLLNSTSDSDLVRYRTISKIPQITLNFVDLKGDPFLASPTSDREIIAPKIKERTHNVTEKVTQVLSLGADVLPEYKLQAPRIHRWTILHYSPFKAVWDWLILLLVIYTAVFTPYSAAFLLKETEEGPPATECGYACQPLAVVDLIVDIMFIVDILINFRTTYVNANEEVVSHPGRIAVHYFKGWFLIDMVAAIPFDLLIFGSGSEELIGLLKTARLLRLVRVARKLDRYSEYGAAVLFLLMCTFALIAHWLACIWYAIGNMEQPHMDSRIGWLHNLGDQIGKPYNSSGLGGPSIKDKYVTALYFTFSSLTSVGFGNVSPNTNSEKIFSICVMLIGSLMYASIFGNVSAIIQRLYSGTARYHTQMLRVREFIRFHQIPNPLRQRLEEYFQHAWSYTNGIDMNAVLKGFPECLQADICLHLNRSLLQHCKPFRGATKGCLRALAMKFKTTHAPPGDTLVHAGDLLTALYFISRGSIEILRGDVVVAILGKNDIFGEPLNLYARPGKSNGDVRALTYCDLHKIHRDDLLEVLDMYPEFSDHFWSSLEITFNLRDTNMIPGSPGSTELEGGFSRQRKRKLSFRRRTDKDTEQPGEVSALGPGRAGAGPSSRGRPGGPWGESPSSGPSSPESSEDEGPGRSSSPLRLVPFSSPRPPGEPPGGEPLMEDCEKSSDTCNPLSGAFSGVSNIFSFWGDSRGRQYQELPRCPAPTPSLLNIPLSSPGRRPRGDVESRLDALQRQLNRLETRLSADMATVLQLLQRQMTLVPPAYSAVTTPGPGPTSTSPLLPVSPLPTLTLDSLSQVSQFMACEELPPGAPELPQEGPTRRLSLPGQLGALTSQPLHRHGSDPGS

[7] = in vitro; settings: mouse, microsomes
[8] = molecular target: CYP3A4 (Homo sapiens, UniProt P08684); assay: Inhibition of CYP 3A4; format: in vitro ADME
Sequence of CYP3A4 (P08684 whole entry): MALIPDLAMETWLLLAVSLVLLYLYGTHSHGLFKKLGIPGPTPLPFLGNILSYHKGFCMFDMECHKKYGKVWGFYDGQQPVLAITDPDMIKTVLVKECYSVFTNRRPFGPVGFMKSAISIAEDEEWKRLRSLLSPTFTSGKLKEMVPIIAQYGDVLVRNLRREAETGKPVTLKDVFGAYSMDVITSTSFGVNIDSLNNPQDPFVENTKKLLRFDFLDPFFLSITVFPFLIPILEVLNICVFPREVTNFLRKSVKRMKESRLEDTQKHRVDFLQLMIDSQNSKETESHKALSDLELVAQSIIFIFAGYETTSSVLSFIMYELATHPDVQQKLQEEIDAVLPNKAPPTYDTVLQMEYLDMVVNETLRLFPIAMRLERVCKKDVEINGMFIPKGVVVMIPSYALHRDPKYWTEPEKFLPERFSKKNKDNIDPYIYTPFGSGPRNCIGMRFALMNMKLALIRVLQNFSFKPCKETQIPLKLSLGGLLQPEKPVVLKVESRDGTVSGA

[9] = in vitro; settings: human, microsomes
[10] = in vivo; settings: mouse, iv
[11] = Mouse pharmacokinetics
[12] = Clearance by mouse liver microsomes
[13] = Clearance by human liver microsomes
[14] = Mycobacterium tuberculosis, inhaled or nasal, 288 h; read-out: Log reduction in colony-forming units (CFU), new compound

Structure (SMILES) | MIC90 [2] [µg/mL] | MIC90 [3] [µg/mL] | AUC: exposure, AUCinf [4] [ng·h/mL] | IV Cl: IV clearance [4] [mL/min/kg] | Vz: IV apparent volume of distribution during terminal phase [4] [L/kg] | F: oral bioavailability [4] [%] | log reduction at 20 mg/kg [5, 14] | IC50 [6] [µM] | microsomal CLint [7] [µL/min/mg] | microsomal CLint [9] [µL/min/mg] | clearance [10] [mL/min/kg] | also measured
COc1nc2ccc(Br)cc2cc1[C@@H](c1ccccc1)[C@@](O)(CCN(C)C)c1cccc2ccccc12 [Compound 1, Bedaquiline, reference compound] | 0.08 (≈ 0.144 µM) | 0.12 (≈ 0.216 µM) |  |  |  |  |  |  |  |  |  | IC50 [1]: 4 to 16 µg/mL (≈ 7.2 to 28.8 µM)
COc1cccc(C(O)(CCN(C)C)C(c2cc3cc(Br)ccc3nc2OC)c2cccc3c2OCO3)n1 (centres unmarked) [Compound 15] | 0.54 (≈ 0.93 µM) | 0.58 (≈ 0.999 µM) | 5600 | 13 | 10 | 45 | 0.3 | 0.24 | 25 | 8 |  | IC50 [8]: 7.6 µM
COc1nc2ccc(Br)cc2cc1C(c1cccc(C)c1)C(O)(CCN(C)C)c1cccnc1C (centres unmarked) [Compound 19] | 0.15 (≈ 0.281 µM) | 0.25 (≈ 0.468 µM) | 400 | 59 | 33 | 10 |  |  | 71 | 35 | > 50 | hERG % inhibition at 3 µM [6]: 26%/3
COc1cccc(C(c2cc3cc(Br)ccc3nc2OC)C(O)(CCN(C)C)c2ccc(C)nc2)c1F (centres unmarked) [Compound 22] | 0.3 (≈ 0.528 µM) | 0.28 (≈ 0.493 µM) | 250 | 67 | 10 | 8 |  |  | 99 | 24 | > 50 | hERG % inhibition at 3 µM [6]: 17%/3
COc1cccc(C(c2cc3cc(Br)ccc3nc2OC)C(O)(CCN(C)C)c2cc(C)cnc2C)c1OC (centres unmarked) [Compound 33] | 0.07 (≈ 0.118 µM) | 0.11 (≈ 0.185 µM) | 1390 | 79 | 77 | 72 | 3.5 | 1.1 | 17 | 7 | > 50 | 
COc1cccc(C(c2cc3cc(Br)ccc3nc2OC)C(O)(CCN(C)C)c2cnc(C)cc2C)c1OC (centres unmarked) [Compound 38] | 0.02 (≈ 0.0336 µM) | 0.24 (≈ 0.404 µM) | 2080 | 28 | 23 | 34 | 0.7 | 3.9 | 46 | 13 |  | 
COc1nc2ccc(Br)cc2cc1C(c1cccc(C)c1)C(O)(CCN(C)C)c1cccnc1OC (centres unmarked) [Compound 39] | 0.13 (≈ 0.236 µM) | 0.14 (≈ 0.254 µM) | 2510 |  |  |  | 0.6 | 0.45 | 20 | 10 |  | 
COc1nc2ccc(C#N)cc2cc1C(c1cccc(C)c1)C(O)(CCN(C)C)c1cccnc1OC (centres unmarked) [Compound 40] | 0.52 (≈ 1.05 µM) | 0.76 (≈ 1.53 µM) | 1170 | 48 | 6.6 | 33 | 0.5 | 0.3 | 53 | 11 |  | 
COc1nc2ccc(Br)cc2cc1C(c1cccc2c1OCO2)C(O)(CCN(C)C)c1cccnc1OC (centres unmarked) [Compound 41] | 0.66 (≈ 1.14 µM) | 1.1 (≈ 1.89 µM) | 3780 | 27 | 20 | 46 | 0.3 |  | 19 | 36 |  | hERG % inhibition at 3 µM [6]: 26%/3
COc1cc(C(O)(CCN(C)C)C(c2cc3cc(Br)ccc3nc2OC)c2ccnc(OC)c2OC)cnc1OC (centres unmarked) [Compound 48] | 0.06 (≈ 0.0956 µM) | 0.45 (≈ 0.717 µM) | 4280 | 19 | 6.0 | 48 | 0.9 | 3.6 | 59 | 5 |  | 
COc1cccc(C(c2cc3cc(C#N)ccc3nc2OC)C(O)(CCN(C)C)c2cc(C)nc(C)c2)c1F (centres unmarked) [Compound 55] | 0.6 (≈ 1.14 µM) | 0.91 (≈ 1.72 µM) | 350 | 130 | 53 | 25 |  |  | 51 | 12 | > 50 | hERG % inhibition at 3 µM [6]: 37%/3
COc1cccc(C(c2cc3cc(C#N)ccc3nc2OC)C(O)(CCN(C)C)c2cc(C)nc(C)c2)c1OC (centres unmarked) [Compound 57] | 0.24 (≈ 0.444 µM) | 0.61 (≈ 1.13 µM) | 1480 | 71 | 82 | 54 | 1.9 | 5.2 | 7 | 7 | > 50 | 
CCOc1cc(C(O)(CCN(C)C)C(c2cc3cc(Br)ccc3nc2OC)c2ccnc(OC)c2OC)cc(OC(C)C)n1 (centres unmarked) [Compound 61] | 0.01 (≈ 0.0149 µM) | 0.06 (≈ 0.0896 µM) |  |  |  |  |  |  |  |  |  | F: oral bioavailability ([11]; mice): 50%; AUC: exposure, AUCinf ([11]; mouse): 10900 ng·h/mL; IV Cl: IV clearance ([11]; mouse, IV): 7 mL/min/kg; Vz: IV apparent volume of distribution during terminal phase ([11]; mouse, IV): 44 L/kg; log reduction at 20 mg/kg ([5]; Mycobacterium tuberculosis, inhaled or nasal, 288 h, read-out: Log reduction in colony-forming units (CFU), new compound): 5; microsomal CLint [12]: 7 µL/min/mg; microsomal CLint [13]: 8 µL/min/mg
CCOc1cc(C(O)(CCN(C)C)C(c2cc(OC)nc(OC)c2)c2cc3cc(Br)ccc3nc2OC)cc(OC(C)C)n1 (centres unmarked) [Compound 62] | < 0.02 |  | 33000 | 3 | 20 | 58 | 4.5 | > 10 | 2.3 | 1 |  | 
